From PMC2947196 (2010)

Assays:
CC(O)C(=O)O = experiment: cells, lysate or membranes
[1] = target: MCT1 (monocarboxylate transporter 1) (Rattus norvegicus, UniProt P53987); experiment: inhibition of L-[…]lactate uptake in Xenopus oocytes; type: cell-based; conditions: read-out: Inhibitor-insensitive component (%)
[2] = target: T1, MCT2 (monocarboxylate transporter 2) (Rattus norvegicus, UniProt Q63344); experiment: as above; type: cell-based; conditions: read-out: % inhibition at 10 nM
T1 sequence (Q63344 1-489): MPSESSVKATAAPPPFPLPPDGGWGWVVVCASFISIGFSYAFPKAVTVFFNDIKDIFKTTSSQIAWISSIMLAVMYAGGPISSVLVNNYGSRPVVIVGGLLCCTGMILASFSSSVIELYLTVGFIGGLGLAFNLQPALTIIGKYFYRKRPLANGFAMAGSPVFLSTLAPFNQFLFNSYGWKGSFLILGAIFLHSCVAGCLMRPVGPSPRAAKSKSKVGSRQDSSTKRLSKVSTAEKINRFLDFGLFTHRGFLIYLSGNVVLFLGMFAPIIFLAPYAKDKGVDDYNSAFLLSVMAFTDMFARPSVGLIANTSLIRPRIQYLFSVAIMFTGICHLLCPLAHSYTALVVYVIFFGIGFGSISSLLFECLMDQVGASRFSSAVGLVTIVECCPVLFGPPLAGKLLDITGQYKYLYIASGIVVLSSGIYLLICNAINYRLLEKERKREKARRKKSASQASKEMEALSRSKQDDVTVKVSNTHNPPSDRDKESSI

Chain of MCT1 (monocarboxylate transporter 1) (P53987 whole entry): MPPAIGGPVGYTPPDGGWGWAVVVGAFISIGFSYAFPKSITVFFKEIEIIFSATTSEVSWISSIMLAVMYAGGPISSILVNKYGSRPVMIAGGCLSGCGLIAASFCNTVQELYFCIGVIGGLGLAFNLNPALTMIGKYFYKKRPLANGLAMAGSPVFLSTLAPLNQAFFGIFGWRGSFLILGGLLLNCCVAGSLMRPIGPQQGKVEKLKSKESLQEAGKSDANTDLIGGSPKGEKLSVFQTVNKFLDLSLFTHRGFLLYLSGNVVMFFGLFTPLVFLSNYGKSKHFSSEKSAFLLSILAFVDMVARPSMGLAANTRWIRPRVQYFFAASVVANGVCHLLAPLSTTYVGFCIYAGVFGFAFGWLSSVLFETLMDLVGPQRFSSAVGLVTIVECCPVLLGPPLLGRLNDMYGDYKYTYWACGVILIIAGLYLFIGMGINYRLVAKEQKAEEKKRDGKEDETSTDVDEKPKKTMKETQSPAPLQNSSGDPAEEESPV

activity at 0.1 µM [1] [%]	inhibition at 0.01 µM [2] [%]	Molecule	Km (CC(O)C(=O)O) [mM]
		MCT1 (monocarboxylate transporter 1) (Rattus norvegicus)	4.4 ± 1.5
1.9 ± 0.6	~70	Cc1n[nH]c(C)c1Cc1sc2c(c1C(=O)N1C[C@H](O)CO1)c(=O)n(C)c(=O)n2CC(C)C [AR-C155858]	
